Experimental data as given in PubChem BioAssay (NCI).
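Values below derive from 48-hour exposures of cells grown in 96-well plates, with endpoints linearly interpolated between the two concentrations bracketing the appropriate inhibition level. GI50 is the concentration that inhibits growth by half. TGI: concentration producing complete growth inhibition.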

Assays:
Experiment in all cases: NCI anticancer screen, dose series, 48 h
786-0 renal = test system: 786-0 renal
ACHN renal = test system: ACHN renal
HCC-2998 colon = test system: HCC-2998 colon
IGROV1 ovarian = test system: IGROV1 ovarian
K-562 leukemia = test system: K-562 leukemia
NCI-H226 lung = test system: NCI-H226 lung
SK-MEL-2 melanoma = test system: SK-MEL-2 melanoma
SR leukemia = test system: SR leukemia
U251 CNS = test system: U251 CNS

Structure (SMILES) | TGI (786-0 renal) | TGI (ACHN renal) | TGI (HCC-2998 colon) | TGI (IGROV1 ovarian) | TGI (K-562 leukemia) | TGI (NCI-H226 lung) | TGI (SK-MEL-2 melanoma) | TGI (SR leukemia) | TGI (U251 CNS) | GI50 (ACHN renal) | GI50 (HCC-2998 colon) | GI50 (IGROV1 ovarian) | GI50 (K-562 leukemia) | GI50 (NCI-H226 lung) | GI50 (SK-MEL-2 melanoma) | GI50 (SR leukemia) | GI50 (U251 CNS)
O=C1c2ccccc2CC12Cc1ccc3c(c1C2=O)CCCC3 (stereo not given) | > 100 µM | > 100 µM | > 100 µM | > 100 µM | > 100 µM | > 100 µM | > 100 µM | 6.56 µM | > 100 µM |  |  |  |  |  |  |  | 
CCOC(=O)c1c(NS(=O)(=O)c2ccccc2)sc2c1CCCC2 | > 100 µM | > 100 µM |  | > 100 µM | > 100 µM | > 100 µM | > 100 µM | > 100 µM |  |  |  |  |  |  |  |  | 
COc1cccc(C2c3cc4c(cc3OC(NNS(=O)(=O)c3ccc(C)cc3)C2C)OCO4)c1O (stereo not given) | > 100 µM | > 100 µM | > 100 µM | > 100 µM | 39.4 µM | > 100 µM | 53 µM | 26.2 µM | > 100 µM |  |  |  |  |  |  |  | 
CN(C)CCCn1c(-c2ccc(Br)cc2)csc1=Nc1ccccc1 |  | 37.7 µM | 18.3 µM |  | 47.8 µM | 27.3 µM | 31 µM | 46.8 µM | > 100 µM |  |  |  |  |  |  |  | 
c1cc(CSP234N5CCN2CCN3CCN4CC5)cc(CSP234N5CCN2CCN3CCN4CC5)c1 | > 100 µM | > 100 µM | 57.5 µM | 76.6 µM | > 100 µM |  | 45.1 µM | 28.2 µM | 56.2 µM |  |  |  |  |  |  |  | 
C1CCC(CC2CCC(NC3=NCCO3)CC2)CC1 (stereo not given) | 29.2 µM | 35.5 µM | 37.1 µM | 37.1 µM | 32.9 µM | 34.3 µM | 32.4 µM | 52.6 µM | 33.3 µM |  |  |  |  |  |  |  | 
COc1ccc2cc(CNCCCCCCNC(=O)Nc3cccc4ccccc34)ccc2c1 | > 100 µM | > 100 µM | > 100 µM | > 100 µM | > 100 µM | > 100 µM | > 100 µM | > 100 µM | > 100 µM |  |  |  |  |  |  |  | 
CCOC(=O)/C(C(=O)c1ccc[nH]1)=C1/CCCN1C | > 100 µM | > 100 µM | > 100 µM | > 100 µM | > 100 µM | > 100 µM | > 100 µM | > 100 µM | > 100 µM |  |  |  |  |  |  |  | 
Cc1cc2nc3c(N)nn(CCCN(C)C)c3nc2cc1C | > 100 µM | > 100 µM | > 100 µM |  |  |  |  |  | > 100 µM |  |  |  |  |  |  |  | 
C/C(=C\COP(=O)(O)OP(=O)(O)O)CC/C=C(\C)CNc1c(F)c(F)c(F)c(F)c1F | > 100 µM | > 100 µM | > 100 µM | > 100 µM | > 100 µM | > 100 µM | > 100 µM | 0.308 µM | > 100 µM |  |  |  |  |  |  |  | 
Clc1ccc(Cc2nc3cc4ccccc4cc3[nH]2)cc1Cl | > 100 µM | 81.2 µM | 40.4 µM | 16.7 µM | 83 µM | 78 µM | 34.4 µM | 30.8 µM | 78.3 µM |  |  |  |  |  |  |  | 
CCCNC(=O)c1cc(OC)c(OC)cc1NC(=O)C12CC3CC(CC(C3)C1)C2 | 30.6 µM | 30.9 µM |  | 53.3 µM | > 100 µM | 55 µM | 29.5 µM |  | 30.7 µM |  |  |  |  |  |  |  | 
O=C(OC[C@H]1C[C@H]2C(=O)OCCC[C@H]2O1)c1ccccc1 | > 100 µM | > 100 µM |  | > 100 µM | > 100 µM | > 100 µM | > 100 µM | > 100 µM | > 100 µM |  |  |  |  |  |  |  | 
C=CCSC1=N/C(=C\c2ccc(C)cc2)C(=O)N1CC=C | 58.4 µM | > 100 µM | 74.3 µM | > 100 µM | 44.9 µM |  | 61 µM | 29.4 µM | 57.1 µM |  |  |  |  |  |  |  | 
O=C(Cn1c(=O)oc2ccccc21)N(c1ccccc1)c1ccccc1 | > 100 µM | > 100 µM |  | > 100 µM | > 100 µM | > 100 µM | > 100 µM | > 100 µM | > 100 µM |  |  |  |  |  |  |  | 
CCN(CC)C(=O)N[C@@H](CC(C)C)C(=O)NC | > 100 µM | > 100 µM | > 100 µM | > 100 µM | > 100 µM |  | > 100 µM | > 100 µM | > 100 µM |  |  |  |  |  |  |  | 
Cc1n[nH]c(=O)c2c3c([nH]c12)-c1ccccc1C3 | > 100 µM | > 100 µM |  | > 100 µM | > 100 µM | > 100 µM | > 100 µM | > 100 µM | > 100 µM |  |  |  |  |  |  |  | 
O=C1c2cccc3cc([N+](=O)[O-])cc(c23)C(=O)N1c1ccc(OCCN2CCCC2)cc1 | 33.4 µM | 28.1 µM | 33.5 µM | 41.9 µM |  | 24.2 µM | 54.3 µM | 73.2 µM | 41.3 µM |  |  |  |  |  |  |  | 
Cc1ccc2c(c1)CC1(Cc3cc(C)ccc3C1=O)C2=O | > 100 µM | > 100 µM | > 100 µM | > 100 µM | > 100 µM |  | > 100 µM | > 100 µM | > 100 µM |  |  |  |  |  |  |  | 
O=C(c1ccccc1)c1nn(-c2cccc(Cl)c2)c2nc3nc(-c4ccccc4)cc(=O)n3nc12 |  | > 25 µM | > 25 µM | > 25 µM | > 25 µM | > 25 µM | > 25 µM | > 25 µM | > 25 µM | > 25 µM | 22.6 µM | > 25 µM | > 25 µM | > 25 µM | > 25 µM | > 25 µM | > 25 µM
C=CC[PH+](c1ccccc1)c1ccccc1.C=CC[PH+](c1ccccc1)c1ccccc1.[Pt+2].[S-]c1nc2ccccc2[nH]1.[S-]c1nc2ccccc2[nH]1 |  | > 100 µM |  |  | > 100 µM | 4.48 µM | 5.36 µM | > 100 µM |  | 3.89 µM |  |  | 0.62 µM | 1.95 µM | 2.25 µM | 2.71 µM | 
C=CCCCCCCCCCOC1C=CC(O)C(CO)O1 (stereo not given) | > 100 µM | > 100 µM | > 100 µM | 59.1 µM | 53.3 µM | > 100 µM | > 100 µM |  | > 100 µM |  |  |  |  |  |  |  | 
C(/C=C(\Nc1ccccc1)c1ccc2ccccc2c1)=Nc1ccccc1 | 8.9 µM | 11.5 µM |  | 13.7 µM | 4.22 µM | 5.64 µM | 30.9 µM | 2.49 µM | 8.66 µM |  |  |  |  |  |  |  | 
CC(NC(CC12CC3CC(CC(C3)C1)C2)C(N)=O)c1ccccc1 (stereo not given) |  | 57.6 µM | 40.7 µM | > 100 µM | 41.4 µM |  |  | 41.3 µM | 26.1 µM |  |  |  |  |  |  |  | 
